Experimental data published in US20090176701A1, “Anti-microbial agents that interact with the complement system” (priority 2005, published 2009).

What was measured:
Assay type in all cases: cell-based
E. coli O18:K1:H7 [1] = assay: Bacterial killing assay in serum or plasma (complement dependence)
[2] = system: E. coli O7:K1(L):NM (ATCC 23503); assay: Bacterial killing assay with normal human serum, additional strain; details: Table 3, peptide 3 μM, NHS control 5.3
Method: Peptide #3 was tested for activity at 3 μM on additional strains of E. coli using normal human serum as a control.

E. coli O18:K1:H7 [3] = assay: Bacterial killing assay in 10% blood; design: CFU / CFU (Range) / CFU 1 hour / CFU 3 hours / CFU 5 hours / CFU 3 hour: scale not given here; details: for CFU 1 hour / CFU 3 hours: Table 5, 3000 CFU; for CFU 1 hour: blood 3.4; for CFU 3 hours: blood 4.2; for CFU 5 hours / CFU 3 hour: Table 6; for CFU (Range): Table 9
Method: TFPI was incubated with α-thrombin, plasmin, elastase and cathepsin G in 10% blood and tested for bacterial killing activity against E. coli O18:K1:H7 as follows. Recombinant TFPI at 5 μM (unless indicated otherwise), was treated with plasmin (100 nM, lane 3) and α-thrombin (100 nM, lane 7; 1 μM, lane 8) (A), elastase (100 nM, lanes 3 and 4) (B), and cathepsin G (100 nM, lane 4; 1 μM, lanes 5, 6 and 7) (C) in a total volume of 180 μl. The reaction contained TFPI diluted in RPMI 1640 without phenol red, 25 mM Hepes, pH 7.5 (RPMI), 3000 CFU E. coli O18:K1:H7 in 40 μl PBS, and diluted enzyme in 20 μl RPMI. The volume was adjusted with RPMI. The samples were pre-incubated for 15-30 minutes before the addition of anti-coagulant-free fresh blood to a final volume of 200 μl. Controls were 10% blood in RPMI, TFPI at 1, 2 and 5 μM, and the enzymes alone at the respective concentrations. The samples were incubated for 4 hours at 37° C. with 5% CO2 in a humidified incubator and serial dilutions plated on Tryptase soy agar plates. The number of bacterial colonies was determined after overnight incubation at 37° C. All experimental conditions are run in duplicate. The data represent the average colony number.
The 18 μl aliquots were diluted to 10 μM TFPI with 445 μl RPMI 1640 without phenolred, 25 mM Hepes, pH 7.5 (RPMI) and assayed at a final concentration of 5 μM in 200 μl reactions containing 3000 CFU E. coli in 40 μl PBS, 10% non-coagulated blood, and adjusted to the final volume with RPMI. Negative controls were 10% blood in RPMI, TFPI at 5 μM and cathepsin G at 400 nM. Anti-coagulant free blood was freshly drawn and added to the reaction as the last component. The samples were manipulated as described above.
Peptides were designed to test for bacterial killing activity localized in the C-terminal domain of TFPI. Activity was measured against Gram negative (E coli O18:K1:H7. ATCC 700973) bacteria in the presence of 10% blood as described above. Controls were RPMI with 10% blood and 100 nM Tifacogin. The biological activity was determined from the reduction of bacterial colonies, as above.
The three peptides #1, #2, & #3 were diluted in H2O to 10 fold their final assay concentration and incubated with bacteria for 4 hours, at the final concentrations of 3 μM, 300 nM 100 nM and 10 nM. E. coli was used at 3000 CFU/200 μl. Surviving colony numbers were determined as described in Example 1. […] Full-length TFPI has no activity against Gram negative bacteria in these assays at the concentrations tested.
Time-dependency: Peptides were incubated with 3000 CFU E. coli O18:K1:H7 at the indicated final concentrations in the presence of 10% blood in three parallel 200 μl reactions as described above. RPMI with 10% blood was used as negative control. After incubation for 1, 3, or 5 hours samples were assayed for the effect on bacterial survival by plating serial dilutions onto agar plates. […] The effect of peptides on bacterial survival increases over the time-span studied.
In these experiments, variable concentrations of E. coli O18:K1:H7 (3×10^3, 3×10^4 or 3×10^5 CFU/200 μl) were challenged with either 3 μM or 100 nM peptide #3 in RPMI/10% blood, and incubated for 3 or 5 hours before dilution and plating. Briefly, the bacteria were diluted to the indicated CFU in 40 μl PBS, the reactions assembled at a final volume of 200 μl as above, and incubated at 37° C. Serial dilutions of the reactions were plated and the colony number determined after overnight incubation. […] At 5 hours no effect on the high CFU culture was discernable, indicating a titration of the killing activity and the high CFU culture exceeding the capacity.

E. coli O18:K1:H7 [4] = assay: Bacterial killing assay without blood (growth medium); details: Table 4; no blood, peptide 3 μM; growth medium 6.2
Method: Peptides #1, #3 and #4 were tested for their activity without blood on E. coli O18:K1:H7. The peptides were assayed at 3 μM. The same blood and TFPI controls were included as in Experiment I.

Sequence: GFIQRISKGGLIKTKRKRKKQRVKIAY (homo sapiens) [Peptide #3, TFPI aas 242-268]
- bacterial killing activity in CVF-treated serum (E. coli O18:K1:H7 [1]; FIG. 8C, 1 U/ml CVF): still preserved
- bacterial killing activity in CVF-treated serum (E. coli O18:K1:H7 [1]; FIG. 8C, serum treated with 10 U/ml of CVF): lost
- bacterial killing activity in serum (E. coli O18:K1:H7 [1]; FIG. 8C, untreated serum or serum incubated 30 minutes at room temperature without CVF): active
- bacterial killing activity in serum (rank) (E. coli O18:K1:H7 [1]; FIG. 8D, peptides serially diluted to 300 nM, and 30 nM in serum): strongest effect
- bacterial killing activity in C4-deficient serum (E. coli O18:K1:H7 [1]; FIG. 9, C4-deficient guinea pig serum): completely devoid of bacterial killing activity
- bacterial killing activity in complement-depleted sera (E. coli O18:K1:H7 [1]; FIG. 9, serum depleted for C1q, C3, C6, C2, C9, or deficient for C4): loss
- bacterial killing activity after add-back of complement factor (E. coli O18:K1:H7 [1]; FIGS. 9 C and D, purified C1 complex (2.34 μg) or factor C4 (6 μg) added back to the respective depleted/deficient serum): restored
- CFU (E. coli O18:K1:H7 [1]; Table 7, serum at 40 μl, digested rTFPI 5 μM, peptide #3 in parallel, control 4.2): 1.2
- CFU (E. coli O18:K1:H7 [1]; Table 8, Serum + 5 mM MgC12, 10 mM EDTA, control 4.4): 4.2
- bacterial killing activity in chelated serum (E. coli O18:K1:H7 [1]; serum containing 10 mM EGTA and 5 mM MgCl2): no bacterial killing activity
- CFU [2]: 2.9
- activity against O18ac:K1:H7 E. coli strain in blood (E. coli O18:K1:H7 [3]; 10% blood, 4 hours, concentrations tested 10 nM to 3 μM, peptide #5 compared to peptide #3): active
- CFU (E. coli O18:K1:H7 [3]; Table 1, peptide 300 nM, 10% blood, 3000 CFU/200 μl, 4 hours, blood control 5.1): 2.2
- CFU (E. coli O18:K1:H7 [3]; Table 2, peptide 10 nM, 10% blood, blood control 3.5): 2.6
- CFU (E. coli O18:K1:H7 [3]; Table 2, peptide 100 nM, 10% blood, blood control 3.5): 1.2
- CFU 1 hour (E. coli O18:K1:H7 [3]; 300 nM, 10% blood): 3.3
- CFU 3 hours (E. coli O18:K1:H7 [3]; 300 nM, 10% blood): 1.2
- CFU 1 hour (E. coli O18:K1:H7 [3]; 3 μM, 10% blood): 3.2
- CFU 3 hours (E. coli O18:K1:H7 [3]; 3 μM, 10% blood): 0.2
- CFU 5 hours (E. coli O18:K1:H7 [3]; 3000 bacteria, 100 nM, blood alone 3.4): 1.2
- CFU 3 hour (E. coli O18:K1:H7 [3]; 3000 bacteria, 100 nM, blood alone 3.9): 2.3
- CFU 3 hour (E. coli O18:K1:H7 [3]; 30,000 bacteria, 100 nM, blood alone 5.1): 1.5
- CFU 5 hours (E. coli O18:K1:H7 [3]; 30,000 bacteria, 100 nM, blood alone 6.3): 4.1
- CFU 3 hour (E. coli O18:K1:H7 [3]; 30,000 bacteria, 3 μM, blood alone 5.1): 1.1
- CFU 5 hours (E. coli O18:K1:H7 [3]; 30,000 bacteria, 3 μM, blood alone 6.3): 3.6
- CFU 3 hour (E. coli O18:K1:H7 [3]; 300,000 bacteria, 100 nM, blood alone 7.7): 7.5
- CFU 5 hours (E. coli O18:K1:H7 [3]; 300,000 bacteria, 100 nM, blood alone 8.4): 9.1
- CFU 3 hour (E. coli O18:K1:H7 [3]; 300,000 bacteria, 3 μM, blood alone 7.7): 5.8
- CFU 5 hours (E. coli O18:K1:H7 [3]; 300,000 bacteria, 3 μM, blood alone 8.4): 9.1
- CFU (E. coli O18:K1:H7 [3]; Table 7, blood at 20 μl, digested rTFPI 5 μM, peptide #3 in parallel, control 4.1): 1.5
- CFU (Range) (E. coli O18:K1:H7 [3]; peptide 3 μm, Heparin, 3 U/mL): 5.5
- CFU (Range) (E. coli O18:K1:H7 [3]; peptide 3 μm, LMW heparin, 0.3 U/mL): 4.2 (4.1-4.2)
- CFU (Range) (E. coli O18:K1:H7 [3]; peptide 3 μm, LMW heparin, 3 U/mL): 5.2 (5.2-5.3)
- bacterial killing activity with un-fractionated heparin (E. coli O18:K1:H7 [3]; peptide 3 μm, un-fractionated heparin at 0.3 U/ml, data not shown): partial loss of bacterial killing activity
- CFU (Range) (E. coli O18:K1:H7 [4]): 6.2 (6.1-6.2)
